According to ChEMBL document CHEMBL1135141, “Inhibition of glutathione S-transferase in rat hepatocytes by a glycine-tetrazole modified S-alkyl-GSH analogue” (Bioorg Med Chem Lett, 2002):

Experiments:
Settings in all cases: concentration not given here
[1] = target: T1, Glutathione S-transferase Mu 1 (Rattus norvegicus) (UniProt P04905); assay: Tested for percent inhibition of isolated rat liver cytosolic Glutathione S-transferase 3-3 isoenzyme
T1 sequence (whole entry): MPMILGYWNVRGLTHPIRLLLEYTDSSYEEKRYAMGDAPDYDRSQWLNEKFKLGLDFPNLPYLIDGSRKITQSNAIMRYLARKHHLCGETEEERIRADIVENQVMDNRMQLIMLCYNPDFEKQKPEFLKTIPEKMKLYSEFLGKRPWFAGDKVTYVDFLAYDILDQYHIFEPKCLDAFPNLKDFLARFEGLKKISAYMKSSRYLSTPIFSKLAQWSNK

[2] = target: T2, Glutathione S-transferase Mu 2 (Rattus norvegicus) (UniProt P08010); assay: Tested for percent inhibition of isolated rat liver cytosolic Glutathione S-transferase 4-4 isoenzyme
T2 sequence (whole entry): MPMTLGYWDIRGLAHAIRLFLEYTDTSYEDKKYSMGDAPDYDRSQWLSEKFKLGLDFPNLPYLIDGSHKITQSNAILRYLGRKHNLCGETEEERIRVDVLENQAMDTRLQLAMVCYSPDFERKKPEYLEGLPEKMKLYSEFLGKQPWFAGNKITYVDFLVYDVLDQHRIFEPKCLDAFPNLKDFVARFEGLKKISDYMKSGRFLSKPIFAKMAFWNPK

[3] = target: Glutathione S-transferase alpha-1 (Rattus norvegicus) (UniProt P00502); assay: Tested for percent inhibition of isolated rat liver cytosolic Glutathione S-transferase 1-1 isoenzyme
Sequence of Glutathione S-transferase alpha-1 (Rattus norvegicus) (P00502 whole entry, looked up): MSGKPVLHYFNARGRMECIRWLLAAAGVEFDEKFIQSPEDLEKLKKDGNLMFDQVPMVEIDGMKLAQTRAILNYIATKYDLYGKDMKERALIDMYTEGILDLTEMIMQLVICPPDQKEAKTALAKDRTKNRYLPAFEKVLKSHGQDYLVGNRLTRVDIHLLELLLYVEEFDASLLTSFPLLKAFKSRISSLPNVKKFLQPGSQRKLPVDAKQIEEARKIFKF

[4] = target: Glutathione S-transferase alpha-3 (Rattus norvegicus) (UniProt P04904); assay: Tested for percent inhibition of isolated rat liver cytosolic Glutathione S-transferase 2-2 isoenzyme
Sequence of Glutathione S-transferase alpha-3 (Rattus norvegicus) (P04904 whole entry, looked up): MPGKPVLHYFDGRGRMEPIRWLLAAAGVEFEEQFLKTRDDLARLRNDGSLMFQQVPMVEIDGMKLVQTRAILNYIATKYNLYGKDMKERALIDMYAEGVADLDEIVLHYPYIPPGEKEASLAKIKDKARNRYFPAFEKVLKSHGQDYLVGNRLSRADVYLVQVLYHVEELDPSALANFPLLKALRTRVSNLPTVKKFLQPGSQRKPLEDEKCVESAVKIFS

inhibition [1]	inhibition [2]	inhibition [3]	inhibition [4]	Structure (SMILES)
95%	91%	53%	98%	CCCCCC(C)SCC(NC(=O)CCC(N)C(=O)O)C(=O)NCC(=O)O (single isomer, unassigned)
65%	59%	16%	53%	CCCCCC(C)SCC(NC(=O)CCC(N)C(=O)O)C(=O)NCc1nn[nH]n1 (stereo not drawn)
